Among the test systems are COLO 205 colon; SF-268 CNS; DU-145 prostate; OVCAR-4 ovarian; SK-MEL-5 melanoma; SK-MEL-2 melanoma; OVCAR-3 ovarian; SK-OV-3 ovarian; NCI-H522 lung; TK-10 renal.
Holding throughout (assay): NCI tumour cell line growth inhibition, 48 h

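In this assay, cells in 96-well plates receive the compound at five concentrations for 48 hours. Endpoints are linearly interpolated between the surrounding concentrations. GI50 = concentration required for 50% inhibition of growth. TGI denotes the concentration required for complete inhibition of growth.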 *1 amine or outer side, *2 acyl side, *3 side chain or, on linkers, in order; H or OH if unused. Where a SMILES comes first, the peptide text is derived from it. [ ]: non-standard residue; d: D form. The star is where a group is joined. ξ: configuration not given here. X15 = CCN(CC)c1ccc2cc(N*)c(=O)oc2c1; dIva = CC[C@@](C)(N)C(=O)O; X14 = O=C(OCCN[*:1])[*:2]; Aib = CC(C)(N)C(=O)O; ξP = O=C(O)C1CCCN1; βAla = NCCC(=O)O

Regarding `COc1ccc(/C=C2\CCC(CN(C)C)C2=O)cc1OC` (stereo not given), the TGI in the experiment with COLO 205 colon was 10.6 µM; in the experiment on SF-268 CNS, 27.1 µM; in the experiment with DU-145 prostate it was 20.4 µM; in the experiment on OVCAR-4 ovarian, 18.4 µM; in the experiment with SK-MEL-5 melanoma, 23.9 µM; in the experiment with SK-MEL-2 melanoma it was 26.9 µM. In addition, the TGI turned out to be 15.8 µM with OVCAR-3 ovarian, 33.7 µM in the experiment with SK-OV-3 ovarian, 4.23 µM with NCI-H522 lung and 18.7 µM in the experiment with TK-10 renal.

As for `COc1ccc2c(c1)C(C)Cc1c(Cl)nc(C)nc1N2C` (stereo not given), the GI50 in the experiment on COLO 205 colon was 2.07 µM; in the experiment on SF-268 CNS, 2.6 µM; in the experiment with DU-145 prostate, 3.72 µM; in the experiment on OVCAR-4 ovarian it was 4.94 µM; in the experiment on SK-MEL-5 melanoma, 2.55 µM; with SK-MEL-2 melanoma, 10.6 µM. For the same molecule, the GI50 with OVCAR-3 ovarian was 1.4 µM; with SK-OV-3 ovarian, 2.79 µM; with NCI-H522 lung, 0.763 µM; in the experiment with TK-10 renal, 4.55 µM. The TGI in the experiment with COLO 205 colon is 5.53 µM; with SF-268 CNS, 18.6 µM; with DU-145 prostate, 33.5 µM; in the experiment on OVCAR-4 ovarian it was > 100 µM; in the experiment on SK-MEL-5 melanoma, 11.2 µM; with SK-MEL-2 melanoma, 29.5 µM. Further, the TGI in the experiment with OVCAR-3 ovarian was 4.17 µM; with SK-OV-3 ovarian, 26.7 µM; in the experiment with NCI-H522 lung it was 5.92 µM; in the experiment with TK-10 renal, 38.8 µM.

`CCOC(=O)c1nc(Nc2ccc(Cl)cc2)c2ccccc2n1`: the GI50 is 9.8 µM in the experiment on COLO 205 colon; 10.1 µM in the experiment with SF-268 CNS; 7.39 µM in the experiment with DU-145 prostate; 11.3 µM in the experiment with OVCAR-4 ovarian; 7.19 µM with SK-MEL-5 melanoma; 13.2 µM with SK-MEL-2 melanoma. Further, the GI50 is 6.11 µM with OVCAR-3 ovarian, 10.6 µM in the experiment with SK-OV-3 ovarian, 10.5 µM in the experiment on NCI-H522 lung and 8.11 µM in the experiment on TK-10 renal. The TGI in the experiment with COLO 205 colon came out at 20.6 µM; with SF-268 CNS, 25.1 µM; in the experiment on DU-145 prostate, 15.1 µM; in the experiment on OVCAR-4 ovarian, 47.9 µM; in the experiment with SK-MEL-5 melanoma, 13.8 µM; with SK-MEL-2 melanoma, 30.4 µM. The TGI in the experiment on OVCAR-3 ovarian came to 13.2 µM; with SK-OV-3 ovarian it was 24 µM; in the experiment on NCI-H522 lung, 25.8 µM; in the experiment with TK-10 renal it was 19.3 µM.

Consider `CCN(CC)c1ccc2cc(NC(=O)OCCNC(=O)CCNC(=O)[C@H](CC(C)C)NC(=O)C(C)(C)NC(=O)C(C)(C)NC(=O)[C@H](CC(C)C)NC(=O)CCNC(=O)C(C)(C)NC(=O)[C@H](CC(C)C)NC(=O)CCNC(=O)[C@@](C)(CC)NC(=O)[C@H](C)NC(=O)CCNC(=O)C(C)(C)NC(=O)[C@H](C)NC(=O)[C@@H]3CCCN3C(=O)[C@@](C)(CC)NC(=O)[C@H](Cc3ccccc3)NC(=O)C3CCCN3C(=O)C(C)(C)NC(=O)C3CCCN3C(=O)C(C)(C)NC(C)=O)c(=O)oc2c1` (stereo not given in full) (Ac-[Aib][ξP][Aib][ξP]F[dIva]PA[Aib][βAla]A[dIva][βAla]L[Aib][βAla]L[Aib][Aib]L[βAla][X14]-X15), for which the GI50 with COLO 205 colon was 0.00237 µM; in the experiment on SF-268 CNS it was 0.00435 µM; in the experiment on DU-145 prostate, 0.00497 µM; with OVCAR-4 ovarian, 0.00347 µM; in the experiment on SK-MEL-5 melanoma it was 0.00256 µM; in the experiment on SK-MEL-2 melanoma it was 0.00266 µM. Also, the GI50 in the experiment on OVCAR-3 ovarian is 0.00338 µM; with SK-OV-3 ovarian, 0.0028 µM; in the experiment with NCI-H522 lung, 0.00305 µM; in the experiment with TK-10 renal, 0.0142 µM. The TGI came out at 0.006 µM with COLO 205 colon; 0.0187 µM with SF-268 CNS; 0.0199 µM in the experiment with DU-145 prostate; 0.0439 µM in the experiment with OVCAR-4 ovarian; 0.00666 µM in the experiment on SK-MEL-5 melanoma; 0.00665 µM with SK-MEL-2 melanoma. Also, the TGI came out at 0.0139 µM with OVCAR-3 ovarian, 0.00775 µM in the experiment with SK-OV-3 ovarian, 0.0124 µM with NCI-H522 lung and 0.079 µM with TK-10 renal.

Consider `COCCNc1cc(NC(=O)N2CCCc3cc(CN4CCN(C)CC4=O)c(C=O)nc32)ncc1C#N`, for which the GI50 in the experiment with COLO 205 colon is 27.2 µM; in the experiment on SF-268 CNS it was > 50 µM; in the experiment with DU-145 prostate, > 50 µM; with OVCAR-4 ovarian, > 50 µM; in the experiment on SK-MEL-5 melanoma it was > 50 µM; in the experiment on SK-MEL-2 melanoma it was 36.6 µM. Moreover, the GI50 in the experiment on OVCAR-3 ovarian, in the experiment on SK-OV-3 ovarian, with NCI-H522 lung and with TK-10 renal was > 50 µM throughout. In addition, the TGI with COLO 205 colon, in the experiment on SF-268 CNS, with DU-145 prostate, in the experiment on OVCAR-4 ovarian, in the experiment on SK-MEL-5 melanoma and in the experiment with SK-MEL-2 melanoma was > 50 µM each time. Moreover, the TGI with OVCAR-3 ovarian, in the experiment on SK-OV-3 ovarian, in the experiment on NCI-H522 lung and in the experiment with TK-10 renal was > 50 µM each time.

In the case of `O=C(c1cccnc1)c1cc(-c2ccccn2)c(=O)n2ccccc12`, the GI50 in the experiment with COLO 205 colon, with SF-268 CNS, in the experiment on DU-145 prostate, in the experiment with OVCAR-4 ovarian, in the experiment with SK-MEL-5 melanoma and with SK-MEL-2 melanoma was > 100 µM throughout. Also, the GI50 with OVCAR-3 ovarian, in the experiment with SK-OV-3 ovarian, in the experiment on NCI-H522 lung and with TK-10 renal was > 100 µM each time. Further, the TGI in the experiment on COLO 205 colon, in the experiment on SF-268 CNS, in the experiment on DU-145 prostate, in the experiment with OVCAR-4 ovarian, with SK-MEL-5 melanoma and in the experiment with SK-MEL-2 melanoma was > 100 µM in each case. In addition, the TGI in the experiment with OVCAR-3 ovarian, with SK-OV-3 ovarian, in the experiment with NCI-H522 lung and in the experiment with TK-10 renal was > 100 µM in each case.

Turning to `COc1ccc(-c2nn(-c3cccc(Cl)c3)cc2-c2cc(-c3ccccc3)nc(N)n2)cc1`, the GI50 in the experiment with COLO 205 colon was 2.09 µM; in the experiment on SF-268 CNS, 3.76 µM; in the experiment with DU-145 prostate, 10.5 µM; in the experiment with OVCAR-4 ovarian it was 2.42 µM; with SK-MEL-5 melanoma, 7.88 µM; with SK-MEL-2 melanoma, 3.23 µM. Moreover, the GI50 in the experiment with OVCAR-3 ovarian is 4.53 µM; in the experiment on SK-OV-3 ovarian, 13.5 µM; in the experiment on NCI-H522 lung, 1.88 µM; in the experiment with TK-10 renal, 11.8 µM. The TGI in the experiment with COLO 205 colon turned out to be 3.81 µM; with SF-268 CNS, 18.9 µM; with DU-145 prostate it was 22.3 µM; with OVCAR-4 ovarian, 9.64 µM; in the experiment with SK-MEL-5 melanoma, 28.4 µM; in the experiment on SK-MEL-2 melanoma, 10.7 µM. In addition, the TGI was 15.3 µM in the experiment on OVCAR-3 ovarian, 29.2 µM in the experiment with SK-OV-3 ovarian, 3.53 µM in the experiment with NCI-H522 lung and 24.1 µM in the experiment on TK-10 renal.

On to `CN(C(=O)c1ccncc1)c1ccccc1`, for which the TGI in the experiment with COLO 205 colon, with SF-268 CNS, with DU-145 prostate, with OVCAR-4 ovarian, with SK-MEL-5 melanoma and in the experiment on SK-MEL-2 melanoma was > 100 µM throughout. In addition, the TGI with OVCAR-3 ovarian, with SK-OV-3 ovarian, with NCI-H522 lung and with TK-10 renal was > 100 µM in each case.
